Measurements as given in PubChem BioAssay (NCI).
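A five-concentration, 48-hour dose response in 96-well plates underlies each endpoint, interpolated linearly between surrounding concentrations. At the GI50, growth is halved. TGI marks complete inhibition of growth.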

How the values were obtained:
Assay in all cases: inhibition of tumour cell growth, NCI panel, 48 h
[1] = system: 786-0 renal
[2] = system: A498 renal
[3] = system: A549 NSCLC
[4] = system: ACHN renal
[5] = system: BT-549 breast
[6] = system: CAKI-1 renal
[7] = system: COLO 205 colon
[8] = system: DU-145 prostate
[9] = system: EKVX NSCLC
[10] = system: HCC-2998 colon
[11] = system: HCT-116 colon
[12] = system: HCT-15 colon
[13] = system: HOP-62 NSCLC
[14] = system: HOP-92 NSCLC
[15] = system: HS 578T breast
[16] = system: IGROV1 ovarian
[17] = system: KM12 colon
[18] = system: LOX IMVI melanoma
[19] = system: M14 melanoma
[20] = system: MALME-3M melanoma
[21] = system: MCF7 breast
[22] = system: MDA-MB-231 breast
[23] = system: MDA-MB-435
[24] = system: NCI-H226 lung
[25] = system: NCI-H23 lung

## COC(=O)c1cc(O)c2cc3c(cc2c1-c1cc(OC)c(OC)c(OC)c1)OCO3
[1]
  GI50: 6.23 µM
  TGI: > 100 µM
[2]
  GI50: 0.494 µM
  TGI: > 100 µM
[3]
  GI50: 0.762 µM
  TGI: > 100 µM
[4]
  GI50: 2.59 µM
  TGI: > 100 µM
[5]
  GI50: 7.87 µM
  TGI: > 100 µM
[6]
  GI50: 0.344 µM
  TGI: 5.46 µM
[7]
  GI50: 2.77 µM
  TGI: > 100 µM
[8]
  GI50: 2.16 µM
  TGI: > 100 µM
[9]
  GI50: 2.63 µM
  TGI: > 100 µM
[10]
  GI50: 6.85 µM
  TGI: > 100 µM
[11]
  GI50: 0.604 µM
  TGI: > 100 µM
[12]
  GI50: 0.738 µM
  TGI: > 100 µM
[13]
  GI50: 1.79 µM
  TGI: 18.4 µM
[14]
  GI50: 4.19 µM
  TGI: 48.1 µM
[15]
  GI50: 1.43 µM
  TGI: 9.48 µM
[16]
  GI50: 0.91 µM
  TGI: > 100 µM
[17]
  GI50: 0.503 µM
  TGI: > 100 µM
[18]
  GI50: 1.67 µM
  TGI: > 100 µM
[19]
  GI50: 0.893 µM
  TGI: > 100 µM
[20]
  GI50: 0.815 µM
  TGI: > 100 µM
[21]
  GI50: 0.459 µM
  TGI: > 100 µM
[22]
  GI50: 1.5 µM
  TGI: > 100 µM
[23]
  GI50: 0.277 µM
  TGI: 1.12 µM
[24]
  GI50: 5.12 µM
  TGI: > 100 µM
[25]
  GI50: 3.77 µM
  TGI: > 100 µM
